What was measured:
[1] = target: T1, RXR variant Q275C;I310M;F313I (QCIMFI) (Homo sapiens, UniProt P19793, Q275C/I310M/F313I); test: luciferase reporter activation in transfected HEK293T cells; assay type: cell-based
T1 construct: gene RXRA; RXR variant LBD with RXR DBD (QCIMFI)
T1 sequence (P19793 1-462 Q275C/I310M/F313I): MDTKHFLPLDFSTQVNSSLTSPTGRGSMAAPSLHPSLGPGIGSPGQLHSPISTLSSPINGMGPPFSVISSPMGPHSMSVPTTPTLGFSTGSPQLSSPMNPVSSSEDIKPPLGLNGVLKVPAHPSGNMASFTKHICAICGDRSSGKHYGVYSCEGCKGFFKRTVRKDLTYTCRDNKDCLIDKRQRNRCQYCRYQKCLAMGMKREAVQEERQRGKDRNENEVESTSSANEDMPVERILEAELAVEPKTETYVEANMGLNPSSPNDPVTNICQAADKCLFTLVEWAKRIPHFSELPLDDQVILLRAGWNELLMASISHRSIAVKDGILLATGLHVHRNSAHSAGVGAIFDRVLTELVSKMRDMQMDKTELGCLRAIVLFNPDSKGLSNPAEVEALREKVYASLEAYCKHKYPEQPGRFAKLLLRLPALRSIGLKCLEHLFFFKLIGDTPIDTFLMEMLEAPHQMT

[2] = target: T2, retinoid X receptor wild type (RXRwt) (Homo sapiens, UniProt P19793); test: luciferase reporter (CRBPII response element) activation in transfected HEK293T cells; assay type: cell-based
T2 construct: gene RXRA; full length RXRwt
T2 sequence (P19793 whole entry): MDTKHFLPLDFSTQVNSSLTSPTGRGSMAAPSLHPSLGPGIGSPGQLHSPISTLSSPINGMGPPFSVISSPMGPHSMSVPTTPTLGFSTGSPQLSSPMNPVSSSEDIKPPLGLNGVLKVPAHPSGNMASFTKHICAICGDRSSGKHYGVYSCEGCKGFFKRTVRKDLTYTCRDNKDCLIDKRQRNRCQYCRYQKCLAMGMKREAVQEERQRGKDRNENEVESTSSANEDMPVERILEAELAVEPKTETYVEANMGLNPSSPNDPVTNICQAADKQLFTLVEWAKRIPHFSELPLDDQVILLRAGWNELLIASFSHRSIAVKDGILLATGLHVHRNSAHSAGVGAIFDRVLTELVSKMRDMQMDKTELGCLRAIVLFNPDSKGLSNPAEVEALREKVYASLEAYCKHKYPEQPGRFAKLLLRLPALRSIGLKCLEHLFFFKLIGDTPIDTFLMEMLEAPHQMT

## LG335
[1]
  EC50: 38 nM
[2]
  EC50: 338 nM
